Results from ChEMBL document CHEMBL3301562, “MMV Box screening against Plasmodium falciparum protein kinases and aminoacyl tRNA synthetases”.
pIC50: −log10 of the molar value.

What was measured:
Type in all cases: functional
[1] = target: T1, Calcium-dependent protein kinase 4 (Plasmodium falciparum (isolate 3D7), UniProt Q8IBS5); assay: MMV: CDPK4 Protein kinase inhibition assay using recombinant PfCDPK4, syntide2 peptide substrate, ATP and KinaseGlo to measure % inhibition at 1 uM MMV box compound.
T1 sequence (Q8IBS5 whole entry): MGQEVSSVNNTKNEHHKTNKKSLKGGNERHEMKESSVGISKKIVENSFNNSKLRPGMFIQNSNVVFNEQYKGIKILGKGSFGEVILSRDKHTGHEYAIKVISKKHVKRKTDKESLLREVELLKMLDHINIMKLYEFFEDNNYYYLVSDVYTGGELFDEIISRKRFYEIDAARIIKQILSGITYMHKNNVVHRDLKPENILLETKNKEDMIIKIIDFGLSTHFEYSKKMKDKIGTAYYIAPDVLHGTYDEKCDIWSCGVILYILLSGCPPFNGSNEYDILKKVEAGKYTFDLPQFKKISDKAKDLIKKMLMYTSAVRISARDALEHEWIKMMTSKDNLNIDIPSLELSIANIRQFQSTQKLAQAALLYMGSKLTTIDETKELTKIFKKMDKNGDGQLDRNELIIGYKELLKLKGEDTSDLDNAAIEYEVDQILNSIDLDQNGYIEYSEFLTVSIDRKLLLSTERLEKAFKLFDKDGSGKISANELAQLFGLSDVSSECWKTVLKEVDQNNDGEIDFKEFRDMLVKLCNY

[2] = target: Lysine--tRNA ligase (Plasmodium falciparum (isolate 3D7), UniProt Q8IDJ8); assay: MMV: KRS recombinant Plasmodium falciparum Lysyl-tRNA-synthetase, assay with yeast tRNA, ATP, and lysine and 3 uM MMV malaria box compound, assay read out with kinase glo as % inhibition.
[3] = target: T2, Mitogen-activated protein kinase (Plasmodium falciparum, UniProt Q25917); assay: Final concentrations were 1 uM ATP, 0.5 mM DTT, 1 mM MgCl2, 0.5 mg/mL BSA, and 10 ug/ml MAP2 in a buffer of 50 mM HEPES (pH 7.0). 0.5 mg/mL histone III-S served as the substrate (13); 100 uM AMP-PNP, an ATP analog, was used as a control inhibitor. Incubation time was 4 hours.
T2 sequence (Q25917 whole entry): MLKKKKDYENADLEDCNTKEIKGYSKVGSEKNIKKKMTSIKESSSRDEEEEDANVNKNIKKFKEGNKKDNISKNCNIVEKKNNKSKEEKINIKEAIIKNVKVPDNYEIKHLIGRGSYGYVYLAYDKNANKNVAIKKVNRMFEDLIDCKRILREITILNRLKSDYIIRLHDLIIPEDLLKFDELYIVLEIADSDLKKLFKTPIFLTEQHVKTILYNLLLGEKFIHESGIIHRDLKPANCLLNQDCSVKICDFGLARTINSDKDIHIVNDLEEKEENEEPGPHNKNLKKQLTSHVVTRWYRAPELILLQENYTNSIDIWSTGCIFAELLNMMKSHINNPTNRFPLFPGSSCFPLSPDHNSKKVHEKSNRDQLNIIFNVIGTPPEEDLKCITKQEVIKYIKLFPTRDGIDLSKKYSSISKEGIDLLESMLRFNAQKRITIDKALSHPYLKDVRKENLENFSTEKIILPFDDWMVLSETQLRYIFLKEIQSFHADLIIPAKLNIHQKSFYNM

[4] = target: T3, Cdk-related protein kinase 6 (Plasmodium falciparum, UniProt O77239); assay: Final concentrations were 1.5 uM ATP, 5 mM MnCl2, and 15 ug/ml PK6 in a buffer of 100 mM Tris-HCl (pH 7.5). 50 ug/mL MBP was provided as the substrate; 10 uM staurosporine was used as a control inhibitor. Incubation time was 3 hours and 40 minutes.The catalytic activity of each kinase was considered proportional to ATP consumed, as determined from measurements of residual [ATP] with the luciferase-based reagent Kinase-Glo (Promega) following incubation. Luminescence (proportional to residual [ATP]) was measured on the plate readers FLx800 (BioTek Instruments, Winooski, VT, USA) and MicroBeta2.
T3 sequence (O77239 whole entry): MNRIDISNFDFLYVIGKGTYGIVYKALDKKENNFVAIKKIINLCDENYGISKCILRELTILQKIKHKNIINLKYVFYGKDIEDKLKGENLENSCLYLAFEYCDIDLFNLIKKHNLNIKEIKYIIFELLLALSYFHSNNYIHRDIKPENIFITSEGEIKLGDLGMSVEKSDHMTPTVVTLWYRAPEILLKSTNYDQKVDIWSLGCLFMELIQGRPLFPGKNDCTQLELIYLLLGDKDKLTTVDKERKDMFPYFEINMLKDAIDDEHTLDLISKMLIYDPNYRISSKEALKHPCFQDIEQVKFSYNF

[5] = target: Calcium-dependent protein kinase 1 (Plasmodium falciparum, UniProt P62344); assay: MMV: CDPK1 Protein kinase inhibition assay using recombinant PfCDPK1, syntide 2 peptide substrate, ATP and KinaseGlo to measure % inhibition at 1 uM MMV box compound.
[6] = target: T4, Proline--tRNA ligase (Plasmodium falciparum (isolate 3D7), UniProt Q8I5R7); assay: MMV: ProRS recombinant Plasmodium falciparum Prolyl-tRNA-synthetase, assay with yeast tRNA, ATP, and proline and 3 uM MMV malaria box compound, assay read out with kinase glo as % inhibition.
T4 sequence (Q8I5R7 whole entry): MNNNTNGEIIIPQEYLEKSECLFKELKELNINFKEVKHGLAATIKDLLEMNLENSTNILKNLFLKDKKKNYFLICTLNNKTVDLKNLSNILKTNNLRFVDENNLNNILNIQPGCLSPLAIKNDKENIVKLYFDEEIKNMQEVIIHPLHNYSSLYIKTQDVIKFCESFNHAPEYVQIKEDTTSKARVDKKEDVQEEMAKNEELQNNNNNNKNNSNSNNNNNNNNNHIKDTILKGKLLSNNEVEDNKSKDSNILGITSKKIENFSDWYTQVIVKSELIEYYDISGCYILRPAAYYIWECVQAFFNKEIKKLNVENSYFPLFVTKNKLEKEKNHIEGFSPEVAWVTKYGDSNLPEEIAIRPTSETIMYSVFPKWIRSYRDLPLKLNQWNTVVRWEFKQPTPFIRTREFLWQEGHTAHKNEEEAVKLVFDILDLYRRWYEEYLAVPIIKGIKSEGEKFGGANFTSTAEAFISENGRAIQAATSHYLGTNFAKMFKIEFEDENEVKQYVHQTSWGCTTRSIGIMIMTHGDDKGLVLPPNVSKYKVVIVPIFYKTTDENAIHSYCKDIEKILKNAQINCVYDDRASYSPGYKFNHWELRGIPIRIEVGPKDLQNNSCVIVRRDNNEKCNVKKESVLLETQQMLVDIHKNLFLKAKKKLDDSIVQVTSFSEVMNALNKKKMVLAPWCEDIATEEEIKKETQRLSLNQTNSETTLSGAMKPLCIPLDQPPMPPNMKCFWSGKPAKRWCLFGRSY

[7] = target: T5, Putative uncharacterized protein pk7 (Plasmodium falciparum, UniProt O96214); assay: Final concentrations were 1 uM ATP, 2 mM DTT, 20 mM MgCl2, 2 mM MnCl2, 0.01% BSA, and 6 ug/ml PK7, in a buffer of 20 mM Tris-HCl (pH 7.5). The enzyme itself was the only substrate present (since autophosphorylation occurs); 100 uM 1NA-PP1 was used as a control inhibitor. Incubation time was 3 hours.
T5 sequence (O96214 whole entry): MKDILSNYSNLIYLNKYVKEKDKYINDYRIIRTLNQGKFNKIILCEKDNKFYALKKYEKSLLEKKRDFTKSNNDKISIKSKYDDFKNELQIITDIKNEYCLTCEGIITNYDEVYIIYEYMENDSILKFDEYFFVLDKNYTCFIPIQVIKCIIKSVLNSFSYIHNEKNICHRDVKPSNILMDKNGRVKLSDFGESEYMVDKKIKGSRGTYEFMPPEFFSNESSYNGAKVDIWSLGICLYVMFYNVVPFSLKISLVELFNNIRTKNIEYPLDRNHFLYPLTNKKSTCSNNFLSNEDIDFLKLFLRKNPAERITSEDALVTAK

Lysine--tRNA ligase, sequence (Q8IDJ8 whole entry): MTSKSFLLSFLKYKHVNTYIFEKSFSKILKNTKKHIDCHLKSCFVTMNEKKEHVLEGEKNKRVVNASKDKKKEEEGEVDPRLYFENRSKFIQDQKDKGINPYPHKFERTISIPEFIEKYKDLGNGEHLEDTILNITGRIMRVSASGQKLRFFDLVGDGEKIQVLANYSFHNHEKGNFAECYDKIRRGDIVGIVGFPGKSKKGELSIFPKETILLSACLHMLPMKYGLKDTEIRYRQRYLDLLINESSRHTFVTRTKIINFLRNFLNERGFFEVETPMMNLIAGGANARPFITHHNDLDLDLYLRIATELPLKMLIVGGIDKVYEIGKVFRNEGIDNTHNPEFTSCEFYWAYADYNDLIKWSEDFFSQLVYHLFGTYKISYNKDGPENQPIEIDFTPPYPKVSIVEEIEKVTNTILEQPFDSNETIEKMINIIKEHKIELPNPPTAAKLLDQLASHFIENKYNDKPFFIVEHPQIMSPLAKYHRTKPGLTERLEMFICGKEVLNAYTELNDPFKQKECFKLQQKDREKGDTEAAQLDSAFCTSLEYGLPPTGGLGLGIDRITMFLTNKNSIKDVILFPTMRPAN
Calcium-dependent protein kinase 1, sequence (P62344 whole entry): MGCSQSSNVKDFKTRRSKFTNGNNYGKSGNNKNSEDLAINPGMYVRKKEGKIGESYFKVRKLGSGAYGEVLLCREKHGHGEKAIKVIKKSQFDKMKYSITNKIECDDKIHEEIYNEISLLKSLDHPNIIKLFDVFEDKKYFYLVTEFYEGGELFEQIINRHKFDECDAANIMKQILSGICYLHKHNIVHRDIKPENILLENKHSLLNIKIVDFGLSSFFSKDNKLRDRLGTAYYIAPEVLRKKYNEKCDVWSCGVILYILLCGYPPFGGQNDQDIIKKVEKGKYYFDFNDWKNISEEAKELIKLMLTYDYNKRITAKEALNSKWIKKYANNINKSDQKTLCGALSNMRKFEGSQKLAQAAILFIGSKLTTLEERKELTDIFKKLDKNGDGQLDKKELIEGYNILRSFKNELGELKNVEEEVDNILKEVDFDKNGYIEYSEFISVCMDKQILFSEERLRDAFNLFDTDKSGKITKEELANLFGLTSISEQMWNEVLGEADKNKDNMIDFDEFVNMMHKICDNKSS

SMILES	pIC50 [1]	pIC50 [2]	pIC50 [3]	pIC50 [4]	pIC50 [5]	pIC50 [6]	pIC50 [7]
CCOC(=O)c1cn(CC)c2cc(N3CCCCC3)c(F)cc2c1=O	< 6.00	< 5.60	< 6.00	< 6.00	< 6.00	< 5.60	< 6.00
CCCc1cc(O)c2c3c(c(=O)oc2c1)CN(C)CC3	< 6.00	< 5.60	< 6.00	< 6.00	< 6.00	< 5.60	< 6.00
COc1ccc2c(=O)cc(C(Cl)(Cl)Cl)oc2c1	< 6.00	< 5.60	< 6.00	< 6.00	< 6.00	< 5.60	< 6.00
COc1ccc(-c2nc3cc(Cc4ccc5[nH]c(-c6ccc(OC)cc6)nc5c4)ccc3[nH]2)cc1	< 6.00	< 5.60	< 6.00	< 6.00	< 6.00	< 5.60	< 6.00
CCOC(=O)c1ccc2[nH]c(-c3ccccc3)cc(=O)c2c1	< 6.00	< 5.60	< 6.00	< 6.00	< 6.00	< 5.60	< 6.00
Cc1cc(Nc2ccc(Cl)cc2)n2nc(C(F)(F)F)nc2n1	< 6.00	< 5.60	< 6.00	< 6.00	< 6.00	< 5.60	< 6.00
CCCCCCOC(=O)C1=C(C)NC(=O)NC1c1ccccc1F (stereo not drawn)	< 6.00	< 5.60	< 6.00	< 6.00	< 6.00	< 5.60	< 6.00
Cc1ccc(Nc2nc(NCCO)c3ccccc3n2)cc1C	< 6.00	< 5.60	< 6.00	< 6.00	< 6.00	< 5.60	< 6.00
COc1ccc(NC(=O)C2c3ccccc3C(=O)N(CC(C)C)C2c2cccs2)cc1 (stereo not drawn)	< 6.00	< 5.60	< 6.00	< 6.00	< 6.00	< 5.60	< 6.00
